Measurements published in patent US12583884B2, “3beta-(benzyloxy)-17alpha-methyl-pregn-5-en-20-one for use in the treatment of cognitive disorders” (AELIS FARMA, priority 2018, dated 2026).
Read-outs that look alike come from different tables or passages of the source.

Experiments:
[1] = target: Neuropetide Y Y2 (Homo sapiens, UniProt P49146); test: CEREP binding profile: Y2
Description: (§1) The CEREP High-throughput profile consists of a broad collection of 80 transmembrane and soluble receptors, ion channels and G-Protein coupled receptors.

[2] = target: T1, Steroid nuclear receptors AR (Homo sapiens, UniProt P10275); test: Binding: AR
T1 construct: CEREP
Description: as §1

[3] = target: T2, Dopamine D4.4 (Homo sapiens, UniProt P21917); test: CEREP binding profile: D4.4
T2 construct: CEREP
Description: as §1

[4] = target: T3, Serotonin 5-HT5a (Homo sapiens, UniProt P47898); test: CEREP binding profile: 5-HT5a
T3 construct: CEREP (contract panel)
Description: as §1

[5] = target: T4, Steroid nuclear receptors GR (Homo sapiens, UniProt P04150); test: CEREP binding profile: GR
T4 construct: CEREP
Description: as §1

[6] = system: Ts65Dn mice; test: Declarative/relational memory (radial maze flexibility test), Down syndrome model; assay type: in vivo, mouse; conditions: 0.6 μg/ml in drinking water
Description: The relational memory task was performed using 8-arm radial mazes. The diameter of the central platform was 30 cm and the arms were 55 cm length; 10 cm width and 100 cm height from the floor. Each arm was equipped with a retractable door at its entrance and with a food-pellet delivering system at its end. Each maze was placed in a room containing visual cues on the walls to enable spatial discrimination. There was no intra-maze cue. Each maze was fully automated by videotracking (IMETRONIC Pessac—France). This allowed to automatically control the doors of the arms (opening/closure) and food delivery according to the location of the mouse.
Food-restricted mice (85% of their original body weight all throughout the study) were first submitted to 3 sessions of habituation to the mazes. During each habituation session, the mouse freely explored the maze until it visited each of the 8 arms, or 30 min elapsed. At the beginning of each habituation session, the mouse was placed in the central platform with all the arms closed. […]
The number of correct responses was measured at each session. […]
At the end of the behavioral study, mice were sacrificed, blood and brain samples were collected. 3Bn17MeP was quantified by LC/MS-MS chromatography in both plasma and brain.

[7] = target: T5, Serotonin 5-HT3 (Homo sapiens, UniProt P46098); test: CEREP binding profile: 5-HT3
T5 construct: CEREP
Description: as §1

[8] = target: T6, Serotonin 5-HT6 (Homo sapiens, UniProt P50406); test: CEREP binding profile: 5-HT6
T6 construct: CEREP (contract panel)
Description: as §1

[9] = system: GABA BZD (central); test: CEREP binding profile: BZD (central); conditions: 10 μM
Description: as §1

[10] = target: T7, Cannabinoid CB2 (Homo sapiens, UniProt P34972); test: Binding: CB2
T7 construct: CEREP
Description: as §1

[11] = system: Adrenergic alpha2; test: CEREP binding profile: alpha2; conditions: 10 μM
Description: as §1

[12] = target: Opioid and opioid-like mu (MOP) (Homo sapiens, UniProt P35372); test: CEREP binding profile: mu; conditions: 10 μM
Description: as §1

[13] = 7-day oral safety study in rats; assay type: in vivo, Sprague-Dawley rats
Description: Morbidity/mortality checks were performed twice daily. Clinical observations were performed before the first dosing and then daily. Functional and neurobehavioral tests were performed before the first dosing and on the last day of treatment. Body weight was recorded on Day-1, Day-3, Day-5 and Day-7. Food consumption was measured weekly.
Blood samples for haematology parameters and clinical chemistry analysis were collected on the day of necropsy (Day-8).
Animals were sacrificed on Day-8. Selected organs were weighed, fixed, preserved at necropsy and examined histopathologically.

[14] = in vivo; conditions: Ts65Dn and WT, mouse
Description: At the end of the behavioral study, mice were sacrificed, blood and brain samples were collected.

[15] = target: Muscarinic M5 (Homo sapiens, UniProt P08912); test: CEREP binding profile: M5
Description: as §1

[16] = target: T8, Vasoactive intestinal peptide PAC1-PACAP (Homo sapiens, UniProt P41586); test: CEREP binding profile: PAC1
T8 construct: CEREP (contract panel)
Description: as §1

Sequence of Muscarinic M5 (P08912 whole entry): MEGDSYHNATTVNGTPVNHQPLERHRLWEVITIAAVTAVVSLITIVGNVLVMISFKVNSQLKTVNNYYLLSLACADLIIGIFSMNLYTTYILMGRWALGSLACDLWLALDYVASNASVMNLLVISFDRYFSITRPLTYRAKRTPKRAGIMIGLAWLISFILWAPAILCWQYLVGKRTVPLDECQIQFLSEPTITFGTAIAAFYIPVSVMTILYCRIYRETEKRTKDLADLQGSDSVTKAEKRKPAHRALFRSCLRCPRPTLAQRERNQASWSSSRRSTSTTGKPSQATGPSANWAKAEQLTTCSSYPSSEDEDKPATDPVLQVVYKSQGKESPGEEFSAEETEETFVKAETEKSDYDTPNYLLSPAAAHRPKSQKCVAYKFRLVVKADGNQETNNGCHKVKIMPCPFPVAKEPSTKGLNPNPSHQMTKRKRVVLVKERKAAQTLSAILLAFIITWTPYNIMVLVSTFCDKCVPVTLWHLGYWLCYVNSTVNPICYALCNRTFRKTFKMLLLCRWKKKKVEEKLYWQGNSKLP
T7 sequence (P34972 whole entry): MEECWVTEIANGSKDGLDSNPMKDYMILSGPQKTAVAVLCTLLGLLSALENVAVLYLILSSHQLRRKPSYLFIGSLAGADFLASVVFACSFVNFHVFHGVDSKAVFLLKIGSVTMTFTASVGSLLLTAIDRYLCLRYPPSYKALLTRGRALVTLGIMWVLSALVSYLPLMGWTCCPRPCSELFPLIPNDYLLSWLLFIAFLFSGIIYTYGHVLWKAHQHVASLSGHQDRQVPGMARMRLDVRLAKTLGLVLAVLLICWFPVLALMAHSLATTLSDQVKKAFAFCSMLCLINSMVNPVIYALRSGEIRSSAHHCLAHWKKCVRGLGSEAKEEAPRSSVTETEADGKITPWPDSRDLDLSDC
T2 sequence (P21917 whole entry): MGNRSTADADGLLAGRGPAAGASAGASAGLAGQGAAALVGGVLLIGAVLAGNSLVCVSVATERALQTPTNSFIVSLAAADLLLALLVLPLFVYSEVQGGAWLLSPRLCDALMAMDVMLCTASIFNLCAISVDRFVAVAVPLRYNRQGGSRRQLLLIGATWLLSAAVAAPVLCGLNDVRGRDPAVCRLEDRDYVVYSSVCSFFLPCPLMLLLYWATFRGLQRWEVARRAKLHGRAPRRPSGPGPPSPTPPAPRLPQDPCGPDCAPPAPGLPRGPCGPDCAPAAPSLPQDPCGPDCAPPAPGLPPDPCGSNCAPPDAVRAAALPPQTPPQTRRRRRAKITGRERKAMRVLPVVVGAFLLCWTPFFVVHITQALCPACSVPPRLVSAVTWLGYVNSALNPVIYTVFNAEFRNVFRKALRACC
Sequence of Neuropetide Y Y2 (P49146 whole entry): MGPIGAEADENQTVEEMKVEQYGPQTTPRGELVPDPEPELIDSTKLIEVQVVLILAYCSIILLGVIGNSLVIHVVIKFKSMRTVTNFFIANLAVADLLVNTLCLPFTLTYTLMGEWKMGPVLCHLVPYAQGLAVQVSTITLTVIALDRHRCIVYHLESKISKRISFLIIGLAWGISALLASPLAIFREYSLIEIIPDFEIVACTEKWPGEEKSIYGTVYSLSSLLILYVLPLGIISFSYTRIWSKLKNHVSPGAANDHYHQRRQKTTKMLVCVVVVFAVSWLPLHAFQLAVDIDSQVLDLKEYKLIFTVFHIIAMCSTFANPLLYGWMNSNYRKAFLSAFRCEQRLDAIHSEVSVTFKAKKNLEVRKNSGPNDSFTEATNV
Sequence of Opioid and opioid-like mu (MOP) (P35372 whole entry): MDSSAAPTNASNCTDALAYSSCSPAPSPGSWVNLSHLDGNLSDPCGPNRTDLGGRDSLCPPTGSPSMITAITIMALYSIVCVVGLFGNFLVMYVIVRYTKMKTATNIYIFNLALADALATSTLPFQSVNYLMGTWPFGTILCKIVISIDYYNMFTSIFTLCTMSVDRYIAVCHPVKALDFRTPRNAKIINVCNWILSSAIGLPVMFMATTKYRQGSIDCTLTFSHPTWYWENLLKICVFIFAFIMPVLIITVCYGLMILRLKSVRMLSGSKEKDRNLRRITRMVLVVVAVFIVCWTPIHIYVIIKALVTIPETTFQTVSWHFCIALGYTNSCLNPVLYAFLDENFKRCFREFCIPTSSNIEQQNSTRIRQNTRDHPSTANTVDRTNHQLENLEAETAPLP
T5 sequence (P46098 24-478): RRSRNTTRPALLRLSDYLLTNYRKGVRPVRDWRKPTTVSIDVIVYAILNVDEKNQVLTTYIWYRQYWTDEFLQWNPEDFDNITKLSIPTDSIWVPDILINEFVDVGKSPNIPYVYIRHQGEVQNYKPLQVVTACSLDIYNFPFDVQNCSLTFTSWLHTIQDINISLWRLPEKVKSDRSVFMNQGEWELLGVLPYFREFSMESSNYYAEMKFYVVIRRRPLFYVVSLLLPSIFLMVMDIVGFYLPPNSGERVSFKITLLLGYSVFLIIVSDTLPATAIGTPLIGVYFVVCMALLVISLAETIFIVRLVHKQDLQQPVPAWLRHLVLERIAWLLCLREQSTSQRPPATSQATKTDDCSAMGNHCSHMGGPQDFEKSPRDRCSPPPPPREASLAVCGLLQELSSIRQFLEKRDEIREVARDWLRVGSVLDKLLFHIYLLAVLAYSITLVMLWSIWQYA
T3 sequence (P47898 whole entry): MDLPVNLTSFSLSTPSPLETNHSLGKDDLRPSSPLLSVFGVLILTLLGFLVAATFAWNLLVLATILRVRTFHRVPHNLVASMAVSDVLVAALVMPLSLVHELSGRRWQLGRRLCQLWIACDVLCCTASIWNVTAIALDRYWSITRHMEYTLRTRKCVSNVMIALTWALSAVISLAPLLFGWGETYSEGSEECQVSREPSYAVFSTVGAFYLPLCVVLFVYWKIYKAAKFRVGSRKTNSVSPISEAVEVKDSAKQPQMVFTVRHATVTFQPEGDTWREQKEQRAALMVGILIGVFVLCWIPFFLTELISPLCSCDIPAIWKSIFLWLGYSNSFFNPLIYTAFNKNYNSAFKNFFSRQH
T6 sequence (P50406 whole entry): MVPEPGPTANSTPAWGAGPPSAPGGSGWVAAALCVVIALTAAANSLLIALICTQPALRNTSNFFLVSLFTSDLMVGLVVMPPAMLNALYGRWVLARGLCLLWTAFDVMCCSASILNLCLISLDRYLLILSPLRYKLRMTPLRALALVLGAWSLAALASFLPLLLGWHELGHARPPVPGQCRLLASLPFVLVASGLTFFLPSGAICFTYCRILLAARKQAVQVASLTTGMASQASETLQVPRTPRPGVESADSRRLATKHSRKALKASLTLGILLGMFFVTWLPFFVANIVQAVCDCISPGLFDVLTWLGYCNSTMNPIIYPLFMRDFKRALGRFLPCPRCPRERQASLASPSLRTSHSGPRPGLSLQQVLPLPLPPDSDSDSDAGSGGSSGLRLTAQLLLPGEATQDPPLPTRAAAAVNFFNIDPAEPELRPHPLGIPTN
T1 sequence (P10275 whole entry): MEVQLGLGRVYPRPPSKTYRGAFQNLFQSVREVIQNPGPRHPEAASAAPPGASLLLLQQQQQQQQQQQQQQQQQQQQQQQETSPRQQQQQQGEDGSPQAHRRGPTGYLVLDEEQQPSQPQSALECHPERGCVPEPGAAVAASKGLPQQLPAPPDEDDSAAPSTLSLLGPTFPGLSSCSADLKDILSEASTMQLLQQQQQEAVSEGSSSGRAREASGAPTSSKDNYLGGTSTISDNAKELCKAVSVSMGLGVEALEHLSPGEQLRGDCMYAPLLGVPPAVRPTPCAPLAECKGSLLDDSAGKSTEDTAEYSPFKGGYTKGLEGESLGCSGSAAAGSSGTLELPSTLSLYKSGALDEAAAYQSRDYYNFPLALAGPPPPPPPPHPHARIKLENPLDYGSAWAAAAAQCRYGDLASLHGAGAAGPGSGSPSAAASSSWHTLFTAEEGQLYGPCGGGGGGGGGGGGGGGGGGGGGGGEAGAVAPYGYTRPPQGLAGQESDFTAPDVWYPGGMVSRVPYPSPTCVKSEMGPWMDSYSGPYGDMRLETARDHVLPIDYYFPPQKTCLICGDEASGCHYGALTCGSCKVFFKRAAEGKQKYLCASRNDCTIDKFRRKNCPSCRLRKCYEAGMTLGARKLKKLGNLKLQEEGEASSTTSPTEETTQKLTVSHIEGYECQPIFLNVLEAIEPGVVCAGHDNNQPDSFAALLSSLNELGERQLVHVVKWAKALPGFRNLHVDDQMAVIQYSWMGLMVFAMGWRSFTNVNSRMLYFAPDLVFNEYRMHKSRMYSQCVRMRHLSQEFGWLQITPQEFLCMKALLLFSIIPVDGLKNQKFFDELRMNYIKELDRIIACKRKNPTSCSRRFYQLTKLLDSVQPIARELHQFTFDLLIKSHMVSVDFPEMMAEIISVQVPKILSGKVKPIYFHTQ
T8 sequence (P41586 21-468): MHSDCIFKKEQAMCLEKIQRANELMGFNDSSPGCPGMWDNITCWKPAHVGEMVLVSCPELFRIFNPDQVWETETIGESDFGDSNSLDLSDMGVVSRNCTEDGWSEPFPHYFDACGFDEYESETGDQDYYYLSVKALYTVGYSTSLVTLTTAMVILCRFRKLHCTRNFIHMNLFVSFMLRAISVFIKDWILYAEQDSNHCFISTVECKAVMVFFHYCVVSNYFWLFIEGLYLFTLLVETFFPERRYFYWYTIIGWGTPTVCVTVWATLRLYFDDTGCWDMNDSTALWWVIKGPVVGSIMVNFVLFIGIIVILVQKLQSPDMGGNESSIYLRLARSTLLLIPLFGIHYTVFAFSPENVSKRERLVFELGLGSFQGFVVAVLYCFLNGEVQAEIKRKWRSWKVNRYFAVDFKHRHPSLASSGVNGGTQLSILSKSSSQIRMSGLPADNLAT

CC(=O)[C@@]1(C)CC[C@H]2[C@@H]3CC=C4C[C@@H](OCc5ccccc5)CC[C@]4(C)[C@H]3CC[C@@]21C [3Bn17MeP, 3β-benzyloxy, 17α-methyl-pregn-5-en-20-one]
inhibition at 10 µM [1]: -6%
inhibition at 10 µM [2]: 16%
% Inhibition ([3]; 10 μM): −10%
% Inhibition ([4]; 10 μM): 2%
inhibition at 10 µM [5]: -2%
Choice accuracy in the flexibility test (declarative/relational memory) [6]: enhanced choice accuracy of Ts65Dn mice that reached the level of WT
Inhibition % ([7]; 10 μM): 4%
% Inhibition ([8]; 10 μM): −1%
Inhibition % [9]: −16%
inhibition at 10 µM [10]: 2%
% Inhibition [11]: −1%
% Inhibition [12]: −4%
Histopathological changes ([13]; 20 mg/kg per os, 7 days): not associated with any histopathological changes
Total protein level ([13]; 20 mg/kg per os, 7 days): tendency to lower total protein level
Triglyceride level ([13]; 20 mg/kg per os, 7 days): higher triglyceride level
Triglyceride level ([13]; 20 mg/kg per os, 7 days, females): tendency to a lower triglyceride level
Red blood cell counts ([13]; 20 mg/kg per os, 7 days, males): slight tendency to a lower red blood cell counts
White blood cell counts ([13]; 20 mg/kg per os, 7 days, males and females): tendency to a lower white blood cell counts
Signs of toxicity ([13]; 20 mg/kg/day per os, 7 consecutive days): did not induce any sign of toxicity
MTD at 7 days ([13]; both sexes, Sprague-Dawley, rat, in vivo, oral, 20 mg/kg, repeated treatment at a single dose, 7 days per os, read-out: Maximum tolerated dose (MTD)): > 20 mg/kg/day
concentration at 1 month [14]: 1.3 ng/mL
inhibition at 10 µM [15]: 0%

CC(=O)[C@H]1CC[C@H]2[C@@H]3CC=C4C[C@@H](O)CC[C@]4(C)[C@H]3CC[C@]12C [pregnenolone, reference compound]
inhibition at 10 µM [1]: -9%
inhibition at 10 µM [3]: 20%
inhibition at 10 µM [4]: 11%
inhibition at 10 µM [7]: 6%
inhibition at 10 µM [16]: -25%
inhibition at 10 µM [8]: 5%
Inhibition % [9]: > 40%
Inhibition % ([9]; listed as PREG): −43%
inhibition at 10 µM ([10]; CB2, 10 μM, read-out: % Inhibition): -19%
% Inhibition [11]: −2%
% Inhibition [12]: −5%
inhibition at 10 µM ([15]; M5, 10 μM, read-out: % Inhibition): 8%
